In ChEMBL document CHEMBL4393743, “Anti-tumor activity evaluation of novel tubulin and HDAC dual-targeting inhibitors” (Bioorg Med Chem Lett, 2019):

What was measured:
A549 [1] = assay: Induction of apoptosis in human A549 cells assessed as live cells at 0.1 uM incubated for 72 hrs by Annexin V-FITC/propidium iodide-staining based flow cytometric analysis (reference value: 89.8%); type: functional
A549 [2] = assay: Induction of cell cycle arrest in human A549 cells assessed as accumulation at G0/G1 phase at 0.3 uM incubated for 36 hrs by propidium iodide staining based flow cytometry (reference value: 72.51%); type: functional
A549 [3] = assay: Induction of apoptosis in human A549 cells assessed as late apoptotic cells at 0.1 uM incubated for 72 hrs by Annexin V-FITC/propidium iodide-staining based flow cytometric analysis (reference value: 5.69%); type: functional
A549 [4] = assay: Induction of apoptosis in human A549 cells assessed as late apoptotic cells at 1 uM incubated for 72 hrs by Annexin V-FITC/propidium iodide-staining based flow cytometric analysis (reference value: 5.69%); type: functional
A549 [5] = assay: Induction of apoptosis in human A549 cells incubated for 72 hrs by Annexin V-FITC/propidium iodide-staining based flow cytometric analysis; type: functional, cell-based
A549 [6] = assay: Induction of cell cycle arrest in human A549 cells assessed as accumulation at G0/G1 phase at 10 uM incubated for 36 hrs by propidium iodide staining based flow cytometry (reference value: 72.51%); type: functional
A549 [7] = assay: Induction of cell cycle arrest in human A549 cells assessed as accumulation at S phase at 10 uM incubated for 36 hrs by propidium iodide staining based flow cytometry (reference value: 16.66%); type: functional
A549 [8] = assay: Induction of cell cycle arrest in human A549 cells assessed as accumulation at G2/M phase incubated for 36 hrs by propidium iodide staining based flow cytometry; type: functional

Question: With `COc1ccc(/C=C(\C)C(=O)c2cc(OC)c(OC)c(OC)c2)cc1OCCCC(=O)NO` as the compound, how does the Activity (A549 [1]) read?
Answer: 84.8%

Question: And the Activity (A549 [2])?
Answer: 46.23%

Question: What about the Activity (A549 [3]) of the same compound?
Answer: 9.41%

Question: And the Activity (A549 [4])?
Answer: 26.4%

Question: And the Activity (A549 [5])?
Answer: Dose-dependent effect

Question: And the Activity (A549 [6])?
Answer: 1.57%

Question: And the Activity (A549 [7])?
Answer: 16.55%

Question: And the Activity (A549 [8])?
Answer: Dose-dependent effect
